Calls of active or inactive are those of the source. How the calls were made is not given here.
System: rodent carcinogenicity bioassays, tumor incidence
Experiment: CCRIS carcinogenicity studies
Text: The CCRIS database contains chemical records with carcinogenicity, mutagenicity, tumor promotion, and tumor inhibition test results. It was developed by the National Cancer Institute (NCI). Data are derived from studies cited in primary journals, current awareness tools, NCI reports, and other sources. Test results have been reviewed by experts in carcinogenesis and mutagenesis.
CCRIS provides historical information from the years 1985 - 2011. It is no longer updated.
This is an archive assay for CCRIS carcinogenicity studies.

**Q.** `CCC(C)OC(=O)N1CCCCC1CCO` (configuration not stated) was tested. Which carcinogen call (Species: MOUSE, Strain/Sex: CD-1/FEMALE, Route: DERMAL, Dose: 0, 50, 100, 200 MG/KG BW FOR 78 WK (STUDY DURATION: 78 WK), Dose: 0, 50, 100, 200 MG/KG BW FOR 78 WK (STUDY DURATION: 78 WK)) did it give?
**A.** Its carcinogen call is “inactive; negative”.

**Q.** And the carcinogen call (Species: MOUSE, Strain/Sex: CD-1/MALE, Route: DERMAL, Dose: 0, 50, 100, 200 MG/KG BW FOR 78 WK (STUDY DURATION: 78 WK), Dose: 0, 50, 100, 200 MG/KG BW FOR 78 WK (STUDY DURATION: 78 WK))?
**A.** Its carcinogen call is “inactive; negative”.

**Q.** And the carcinogen call (Species: RAT, Strain/Sex: SPRAGUE-DAWLEY/FEMALE, Route: DERMAL, Dose: 0, 50, 100, 200 MG/KG BW FOR 104 WK (STUDY DURATION: 104 WK), Dose: 0, 50, 100, 200 MG/KG BW FOR 104 WK (STUDY DURATION: 104 WK))?
**A.** The carcinogen call was “inactive; negative”.

**Q.** And the carcinogen call (Species: RAT, Strain/Sex: SPRAGUE-DAWLEY/MALE, Route: DERMAL, Dose: 0, 50, 100, 200 MG/KG BW FOR 104 WK (STUDY DURATION: 104 WK), Dose: 0, 50, 100, 200 MG/KG BW FOR 104 WK (STUDY DURATION: 104 WK))?
**A.** The carcinogen call was “inactive; negative”.

**Q.** `O=[N+]([O-])O` was tested. Which carcinogen call (Species: RAT, Strain/Sex: F344/MALE,FEMALE, Route: ORAL, Dose: 2.5, 5% IN DRINKING WATER FOR 2 YR) did it give?
**A.** The carcinogen call was “inactive; negative”.

**Q.** Which carcinogen call (Species: RAT, Strain/Sex: WISTAR/FEMALE, Route: ORAL, Dose: 0, 450 MG/L CITRATE BUFFER SOLUTION IN DRINKING WATER 5D/WK FOR AN AVERAGE TOTAL DOSE OF 0, 950 MG (STUDY DURATION: 28 W, Dose: 0, 450 MG/L CITRATE BUFFER SOLUTION IN DRINKING WATER 5D/WK FOR AN AVERAGE TOTAL DOSE OF 0, 950 MG (STUDY DURATION: 28 W, Tumor Site: Type of Lesion: LIVER: CARCINOMA) does the source give for `O=NN1CCC(=O)NC1=O` here?
**A.** The carcinogen call was “active; positive”.

**Q.** And the carcinogen call (Species: RAT, Strain/Sex: WISTAR/MALE, Route: ORAL, Dose: 0, 450 MG/L CITRATE BUFFER SOLUTION IN DRINKING WATER 5D/WK FOR AN AVERAGE TOTAL DOSE OF 0, 1250 MG (STUDY DURATION: 32, Dose: 0, 450 MG/L CITRATE BUFFER SOLUTION IN DRINKING WATER 5D/WK FOR AN AVERAGE TOTAL DOSE OF 0, 1250 MG (STUDY DURATION: 32, Tumor Site: Type of Lesion: LIVER: CARCINOMA, KIDNEY: ADENOMA)?
**A.** The carcinogen call was “active; positive”.

— PubChem BioAssay AID1259411 (Chemical Carcinogenesis Research Information System (CCRIS), 2018)
